Here are results for one molecule from patent US11767330B2, “Citrate salt, pharmaceutical compositions, and methods of making and using the same” (Foghorn Therapeutics Inc., priority 2021, dated 2023).

The subject of data set [1] is SYO-1 human biphasic synovial sarcoma tumor cells. Kind of data set: SYO-1 xenograft tumor growth (Example 11). The class given is in vivo. The settings on record: 1 mg/kg, i.p., daily, 3 weeks, NOD SCID mice. As to the method: (§1) Method: NOD SCID mice (Beijing Anikeeper Biotech, Beijing) were inoculated subcutaneously on the right flank with the single cell suspension of SYO-1 human biphasic synovial sarcoma tumor cells (5×106) in 100 μL Dulbecco's Modified Eagle Medium (DMEM) with 10% fetal bovine serum (FBS). The mice were randomized into either control group [10% dimethyl sulfoxide (DMSO), 40% polyethylene glycol (PEG400) and 50% water], or treatment group D1 when the mean tumor size reached about 117 mm^3. Mice were dosed daily through intraperitoneal (i.p.) route over the course of 3 weeks. All dose volumes were adjusted by body weights in terms of mg/kg.

The target in a further data set is T1, BRD9 (Homo sapiens, UniProt Q9H8M2).
T1 sequence (Q9H8M2 1-597): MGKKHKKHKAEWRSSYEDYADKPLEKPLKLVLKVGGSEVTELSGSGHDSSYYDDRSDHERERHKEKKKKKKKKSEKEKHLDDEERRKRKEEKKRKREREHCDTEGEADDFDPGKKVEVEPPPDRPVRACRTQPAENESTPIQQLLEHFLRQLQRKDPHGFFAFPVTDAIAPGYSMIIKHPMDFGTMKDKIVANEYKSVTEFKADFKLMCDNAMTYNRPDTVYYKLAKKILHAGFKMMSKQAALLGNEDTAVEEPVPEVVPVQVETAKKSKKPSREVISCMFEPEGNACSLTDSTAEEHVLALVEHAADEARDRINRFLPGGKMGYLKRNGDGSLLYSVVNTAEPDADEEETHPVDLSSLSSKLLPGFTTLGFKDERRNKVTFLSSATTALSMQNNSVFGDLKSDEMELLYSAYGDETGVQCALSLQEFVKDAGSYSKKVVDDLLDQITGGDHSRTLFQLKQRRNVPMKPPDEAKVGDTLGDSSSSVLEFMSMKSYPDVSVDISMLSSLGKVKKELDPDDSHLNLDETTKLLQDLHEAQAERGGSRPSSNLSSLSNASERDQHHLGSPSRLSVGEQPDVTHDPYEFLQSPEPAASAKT
Put plainly: BRD9 degradation in synovial sarcoma tumor in vivo, western blot (Example 12). Further details: Tumors were lysed with 1×RIPA lysis buffer; from tissue; host or cells: SYO-1 xenograft tumours in BALB/c Nude mice; species or system mice. The settings on record: 1 mg/kg, i.p., 4 weeks; tumors 8, 72, 168 hours post last dose. As to the method: Method: Mice were treated with D1, 1 mg/kg, i.p. for 4 weeks. Mice were then euthanized, and tumors were collected at 8 hours, 72 hours, and 168 hours post last dose. Tumors were lysed with 1×RIPA lysis buffer (Boston BioProducts, BP-115D) with protease and phosphatase protein inhibitor (Roche Applied Science #04906837001 & 05892791001). Equal amounts of lysate (30 μg) were loaded in 4-12% Bis-Tris Midi Protein Gels in 1×MOPS buffer; samples ran at 120 V for 120 minutes. Protein was transferred to membrane with TransBlot at 250 mA for 150 minutes, and then membranes were blocked with Odyssey blocking buffer for 1 hour at room temperature. Membranes were hybridized overnight in cold room with primary antibodies. Images acquired using Li—COR imaging system (Li—COR Biotechnology, Lincoln, Nebr.).
On the technique in general: Immunoblotting shows a protein as a band on a membrane.

Data set [2] can be described thus: Tolerability by % body weight change (Example 11). The class given is in vivo. The following applies: 1 mg/kg, i.p., daily, 3 weeks. The method, then: as §1

Entries after “also recorded” stand apart in the source; their conditions may differ.

For `COc1cc(-c2cn(C)c(=O)c3cnc(N4CCC4)cc23)cc(OC)c1CN1CCC(CN2CCC3(CC2)CN(c2ccc4c(c2)C(=O)N(C2CCC(=O)NC2=O)C4)C3)CC1` (racemic) [Compound D1, 3-[6-(7-[[1-([4-[6-(azetidin-1-yl)-2-methyl-1-oxo-2,7-naphthyridin-4-yl]-2,6-dimethoxyphenyl]methyl)piperidin-4-yl]methyl]-2,7-diazaspiro[3.5]nonan-2-yl)-1-oxo-3H-isoindol-2-yl]piperidine-2,6-dione], in data set [1], the tumor growth entry is “tumor growth inhibition”. In addition, the “BRD9 level in tumor (western blot)” value at BRD9 is listed as “BRD9 inhibition; also recorded: complete degradation of BRD9 target up to 168 hours after dose”. In data set [2], the “tolerability based on % body weight change” value was “well tolerated”.
